# Calls of active or inactive are those of the source.
# Columns and labels:
# Cytochrome P450 3A4 = Cytochrome P450 3A4 (Homo sapiens, UniProt P08684);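 note: CYP3A4 tested as one member of a cytochrome P450 panel screen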
# Cytochrome P450 2C19 = Cytochrome P450 2C19 (Homo sapiens, UniProt P33261); assay: Cytochrome panel assay with activity outcomes. Panel member name: p450-cyp2c19 Compounds with AC50 equal or less than 10 uM are considered active; format: functional; conditions: read-out: AC50
# Cytochrome P450 2C9 = Cytochrome P450 2C9 (Homo sapiens, UniProt P11712)
# [1] = target: T1, Heat shock factor protein 1 (Mus musculus, UniProt P38532); assay: decrease of HSF1-responsive luciferase luminescence – cell-based, NIH3T3, dose retest, confirmation (AID 2382); format: functional;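 note: NIH3T3 fibroblasts with HSF1-driven luciferase reporter stressed by proteasome inhibitor MG132; luminescence from HSF1-driven luciferase expression after 8 hours of MG132 stress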
# T1 sequence (P38532 whole entry): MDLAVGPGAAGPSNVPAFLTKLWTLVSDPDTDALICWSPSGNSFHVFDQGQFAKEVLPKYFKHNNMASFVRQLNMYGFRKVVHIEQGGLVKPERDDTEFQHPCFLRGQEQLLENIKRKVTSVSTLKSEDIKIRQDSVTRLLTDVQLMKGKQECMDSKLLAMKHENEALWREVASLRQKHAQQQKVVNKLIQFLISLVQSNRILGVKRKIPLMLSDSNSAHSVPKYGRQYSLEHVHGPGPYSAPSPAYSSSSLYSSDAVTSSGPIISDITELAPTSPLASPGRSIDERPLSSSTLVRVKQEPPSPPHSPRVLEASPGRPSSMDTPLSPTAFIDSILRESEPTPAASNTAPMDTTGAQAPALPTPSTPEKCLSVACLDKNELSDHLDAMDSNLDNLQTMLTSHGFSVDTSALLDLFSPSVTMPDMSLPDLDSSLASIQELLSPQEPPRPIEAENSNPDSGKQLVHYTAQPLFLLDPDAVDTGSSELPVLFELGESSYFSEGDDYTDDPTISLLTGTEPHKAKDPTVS
# [2] = target: T2, Rac GTPase-activating protein 1 (Homo sapiens, UniProt Q9H0H5); assay: blockers of MgcRacGAP-driven Rac1 GTP hydrolysis – biochemical, ADP Hunter fluorescence, primary and confirmatory, confirmation (AID 624330); format: functional
# T2 sequence (Q9H0H5 whole entry): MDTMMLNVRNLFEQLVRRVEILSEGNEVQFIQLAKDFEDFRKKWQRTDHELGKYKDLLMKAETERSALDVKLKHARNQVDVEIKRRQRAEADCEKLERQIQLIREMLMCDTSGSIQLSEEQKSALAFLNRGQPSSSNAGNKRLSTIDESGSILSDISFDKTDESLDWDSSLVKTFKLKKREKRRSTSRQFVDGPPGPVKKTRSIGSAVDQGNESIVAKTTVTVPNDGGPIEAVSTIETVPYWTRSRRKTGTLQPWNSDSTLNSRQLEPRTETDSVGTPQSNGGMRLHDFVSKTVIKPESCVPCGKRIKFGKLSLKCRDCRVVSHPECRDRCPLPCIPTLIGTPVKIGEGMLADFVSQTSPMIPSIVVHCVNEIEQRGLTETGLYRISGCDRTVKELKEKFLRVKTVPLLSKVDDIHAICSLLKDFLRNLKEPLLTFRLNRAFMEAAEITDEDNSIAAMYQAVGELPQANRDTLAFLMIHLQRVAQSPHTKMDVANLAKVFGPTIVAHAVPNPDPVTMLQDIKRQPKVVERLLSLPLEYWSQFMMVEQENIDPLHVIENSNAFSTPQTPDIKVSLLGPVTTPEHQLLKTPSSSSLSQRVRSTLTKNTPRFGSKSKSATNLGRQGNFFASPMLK
# [3] = viability of uninfected HEp-2 cells – cell-based, HTS, cytotoxicity control for RSV inhibitor project, dose response (AID 2410); format: functional; conditions: human respiratory syncytial virus
# Cytochrome P450 2D6 = Cytochrome P450 2D6 (Homo sapiens, UniProt P10635);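 note: CYP2D6 member of a cytochrome P450 panel assay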
# Streptococcus = assay: GAS UMAA2166 growth inhibition – luminescence, BacTiterGlo, counter-screen for streptokinase expression inhibitor project, dose response (AID 1915); format: functional, organism-based;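 note: potency for reduction of bacterial viability or growth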
# [4] = test system: Streptococcus sp. 'group A'; assay: Streptococcus pyogenes SK(-)GAS viability under kanamycin – luminescence, BacTiterGlo, confirmation, counter-screen for streptokinase expression inhibitor project, dose response (AID 1900); format: functional, organism-based
# Cytochrome P450 1A2 = target: T3, Cytochrome P450 1A2 (Homo sapiens, UniProt P05177);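 note: PubChem cytochrome P450 panel assay, CYP1A2 panel member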
# T3 sequence (P05177 whole entry): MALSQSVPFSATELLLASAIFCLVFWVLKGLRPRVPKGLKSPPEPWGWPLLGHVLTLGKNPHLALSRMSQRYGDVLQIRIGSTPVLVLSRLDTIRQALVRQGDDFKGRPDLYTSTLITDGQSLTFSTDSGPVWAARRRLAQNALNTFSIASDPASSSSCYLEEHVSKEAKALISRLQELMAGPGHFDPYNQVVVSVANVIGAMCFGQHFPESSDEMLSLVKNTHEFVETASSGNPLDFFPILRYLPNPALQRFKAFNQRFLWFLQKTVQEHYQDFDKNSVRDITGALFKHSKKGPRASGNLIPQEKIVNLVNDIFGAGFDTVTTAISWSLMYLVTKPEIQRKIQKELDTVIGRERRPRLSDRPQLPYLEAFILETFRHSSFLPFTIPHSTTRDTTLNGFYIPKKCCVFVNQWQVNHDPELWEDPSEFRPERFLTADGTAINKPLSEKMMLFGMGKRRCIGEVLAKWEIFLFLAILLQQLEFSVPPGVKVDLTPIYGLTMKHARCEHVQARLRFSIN
# [5] = Luminescence Cell-Based Dose Retest to Confirm Inhibitors of Cancer Stem Cells. [Related pubchem assays (depositor defined):AID2717, AID2721]; format: functional; conditions: Homo sapiens
# Paired box protein Pax-8 = Paired box protein Pax-8 (Homo sapiens, UniProt Q06710); assay: PAX8 transcriptional activity inhibition in RMG-I – RMG-I cells, luciferase, cherry-pick, dose response (AID 687027); format: functional, cell-based;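 note: luciferase reporter driven by Pax8 target thyroperoxidase promoter measured by SteadyGlo luminescence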
# Chain of Paired box protein Pax-8 (Q06710 whole entry): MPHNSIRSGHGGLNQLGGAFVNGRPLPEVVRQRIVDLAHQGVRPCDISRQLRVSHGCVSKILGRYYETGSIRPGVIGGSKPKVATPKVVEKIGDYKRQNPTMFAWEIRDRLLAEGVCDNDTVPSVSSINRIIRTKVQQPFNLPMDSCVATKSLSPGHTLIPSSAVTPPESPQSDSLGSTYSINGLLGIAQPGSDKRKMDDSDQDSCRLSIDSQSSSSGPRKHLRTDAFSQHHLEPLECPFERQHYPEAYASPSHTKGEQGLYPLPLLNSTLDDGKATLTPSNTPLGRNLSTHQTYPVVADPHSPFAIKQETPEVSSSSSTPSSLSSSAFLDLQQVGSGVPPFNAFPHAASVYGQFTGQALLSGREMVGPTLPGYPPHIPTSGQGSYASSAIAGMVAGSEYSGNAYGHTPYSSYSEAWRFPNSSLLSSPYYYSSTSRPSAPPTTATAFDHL
# Chain of Cytochrome P450 2C19 (P33261 whole entry): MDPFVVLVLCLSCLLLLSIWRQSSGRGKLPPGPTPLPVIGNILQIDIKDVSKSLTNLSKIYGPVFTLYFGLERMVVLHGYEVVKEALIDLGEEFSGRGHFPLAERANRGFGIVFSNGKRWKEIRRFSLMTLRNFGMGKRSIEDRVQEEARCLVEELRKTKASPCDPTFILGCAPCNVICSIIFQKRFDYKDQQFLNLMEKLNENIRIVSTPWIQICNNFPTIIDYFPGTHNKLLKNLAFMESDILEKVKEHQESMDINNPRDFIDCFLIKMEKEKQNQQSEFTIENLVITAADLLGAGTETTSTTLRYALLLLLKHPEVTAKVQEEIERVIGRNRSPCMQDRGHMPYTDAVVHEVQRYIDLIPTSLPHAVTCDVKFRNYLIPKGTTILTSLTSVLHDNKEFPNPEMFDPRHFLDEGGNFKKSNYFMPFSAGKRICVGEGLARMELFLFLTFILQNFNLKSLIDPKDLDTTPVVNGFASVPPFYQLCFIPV
# Chain of Cytochrome P450 2D6 (P10635 whole entry): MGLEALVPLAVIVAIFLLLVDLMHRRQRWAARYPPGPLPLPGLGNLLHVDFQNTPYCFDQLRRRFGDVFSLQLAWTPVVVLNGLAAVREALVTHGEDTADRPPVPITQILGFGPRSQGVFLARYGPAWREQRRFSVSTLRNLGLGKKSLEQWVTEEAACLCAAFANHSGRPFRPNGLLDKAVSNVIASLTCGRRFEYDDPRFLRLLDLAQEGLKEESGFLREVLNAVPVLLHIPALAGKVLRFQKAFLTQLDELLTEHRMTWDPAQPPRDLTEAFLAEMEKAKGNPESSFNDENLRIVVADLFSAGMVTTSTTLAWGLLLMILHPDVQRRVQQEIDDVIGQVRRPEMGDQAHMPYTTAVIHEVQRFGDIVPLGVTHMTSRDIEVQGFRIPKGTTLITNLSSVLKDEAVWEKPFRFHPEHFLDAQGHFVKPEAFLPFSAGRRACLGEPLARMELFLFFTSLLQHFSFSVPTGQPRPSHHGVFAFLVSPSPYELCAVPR
# Chain of Cytochrome P450 3A4 (P08684 whole entry): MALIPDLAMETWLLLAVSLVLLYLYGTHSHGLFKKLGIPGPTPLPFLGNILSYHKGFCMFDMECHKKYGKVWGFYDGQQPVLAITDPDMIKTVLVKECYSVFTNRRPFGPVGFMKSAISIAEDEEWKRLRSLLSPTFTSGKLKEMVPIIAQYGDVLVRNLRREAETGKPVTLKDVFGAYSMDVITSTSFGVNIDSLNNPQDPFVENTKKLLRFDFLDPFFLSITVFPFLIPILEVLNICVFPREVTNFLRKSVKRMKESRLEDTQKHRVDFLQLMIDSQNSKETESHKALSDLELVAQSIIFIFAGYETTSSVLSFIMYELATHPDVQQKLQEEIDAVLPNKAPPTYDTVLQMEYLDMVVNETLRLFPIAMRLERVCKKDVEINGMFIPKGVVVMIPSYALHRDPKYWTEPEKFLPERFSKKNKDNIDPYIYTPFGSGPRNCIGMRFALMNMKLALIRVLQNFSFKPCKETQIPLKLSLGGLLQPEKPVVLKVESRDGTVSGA
# Chain of Cytochrome P450 2C9 (P11712 whole entry): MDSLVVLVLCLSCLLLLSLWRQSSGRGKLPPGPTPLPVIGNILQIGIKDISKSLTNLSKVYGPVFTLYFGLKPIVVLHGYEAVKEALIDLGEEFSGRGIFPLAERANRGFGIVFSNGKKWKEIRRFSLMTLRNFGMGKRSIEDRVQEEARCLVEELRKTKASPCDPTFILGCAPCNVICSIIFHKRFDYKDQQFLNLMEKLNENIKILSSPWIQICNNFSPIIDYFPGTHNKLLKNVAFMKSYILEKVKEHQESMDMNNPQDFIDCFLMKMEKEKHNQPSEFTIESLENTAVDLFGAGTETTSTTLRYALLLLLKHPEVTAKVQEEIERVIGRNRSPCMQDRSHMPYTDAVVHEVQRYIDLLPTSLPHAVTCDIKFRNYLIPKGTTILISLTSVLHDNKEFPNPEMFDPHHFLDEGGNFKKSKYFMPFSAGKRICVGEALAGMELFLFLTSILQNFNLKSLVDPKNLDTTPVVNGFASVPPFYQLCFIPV
compound,measurement,setting,value
NCC#Cc1ccccc1,AC50,Cytochrome P450 3A4,15.8 µM (inconclusive)
CCCOc1ccc(C2C(=O)N(C3CCCCC3)CC(=O)N2C2CC2)cc1OC (configuration not stated),AC50,Cytochrome P450 2C19,39.8 µM (inconclusive)
same,AC50,Cytochrome P450 3A4,17.8 µM (inconclusive)
CS(=O)(=O)Nc1ccc(C(=O)N2CCN(c3ccccc3)CC2)cc1,AC50,Cytochrome P450 2C9,7.94 µM (inconclusive)
same,AC50,Cytochrome P450 2C19,39.8 µM (inconclusive)
same,AC50,Cytochrome P450 3A4,25.1 µM (inconclusive)
Cc1cn2c(nc(=O)c3cccnc32)s1,EC50,[1],> 195 µM (not active)
COc1ccc(NC2CCCN(C(=O)c3ccccc3N3CCOCC3)C2)cc1OC (configuration not stated),IC50,[2],198 µM (active)
NC(=O)c1cc2n(n1)C(C(F)(F)F)CC(c1ccco1)N2 (configuration not stated),CC50,[3],24.5 µM (active)
COc1cc(C=O)ccc1OC(=O)c1ccc(C(C)C)cc1,EC50,[1],> 195 µM (not active)
Cc1ccc(/C=C/C(=O)OCC(=O)NCCN2C(=O)CSC2=O)o1,EC50,[1],> 195 µM (not active)
CCOCc1cnc(C)nc1NCC(=O)c1c(C)[nH]c2ccccc12,AC50,Cytochrome P450 2D6,12.6 µM (inconclusive)
CC(=O)c1ccc(NC(S)=Nc2ccc(Br)c(Cl)c2)cc1,EC50,Streptococcus,8.74 µM (active)
same,EC50,[4],7.95 µM (active)
COc1ccc(/C=C/C(=O)N2CCC(C(N)=O)CC2)cc1S(=O)(=O)N1CCOCC1,EC50,[1],> 195 µM (not active)
CC(C)(C)C(CN1CCCC1)OC(=O)c1ccccc1 (configuration not stated),EC50,[1],19.7 µM (active)
CCn1c(=O)c2c(=O)cc(O)oc2c2ccccc21,AC50,Cytochrome P450 2C19,3.55 µM (inconclusive)
same,AC50,Cytochrome P450 3A4,0.631 µM (inconclusive)
O=C(C[N+]12CN3CN(CN(C3)C1)C2)c1ccc(-c2ccccc2)cc1,AC50,Cytochrome P450 2C9,3.16 µM (inconclusive)
same,AC50,Cytochrome P450 3A4,3.16 µM (inconclusive)
COc1cc(NS(=O)(=O)c2ccc(NC(=O)/C=C/C(=O)O)cc2)nc(OC)n1,EC50,[1],> 195 µM (not active)
COC(=O)C(C)N=C(S)N1CCN(c2c(F)cc3c(=O)c(C(=O)O)cn(C4CC4)c3c2OC)CC1C (configuration not stated),EC50,Streptococcus,4.39 µM (active)
same,EC50,[4],2.85 µM (active)
CCOCC(=O)Nc1ccc([N+](=O)[O-])cc1Cl,CC50,[3],> 50 µM (active)
CC1CN(C(=O)c2cc(S(=O)(=O)N(C)c3ccc(F)cc3)ccc2Cl)CC(C)O1 (configuration not stated),EC50,[1],> 195 µM (not active)
CCOC(=O)c1cccc(NC(=O)COc2ccc([N+](=O)[O-])cc2)c1,AC50,Cytochrome P450 3A4,15.8 µM (inconclusive)
Cc1ccc(-c2nnn(CC(=O)N(Cc3ccco3)C(C(=O)NC(C)(C)C)c3ccc(C)o3)n2)o1 (configuration not stated),CC50,[3],> 50 µM (active)
O=c1cnc2cnc(Nc3ccccc3)nc2n1C[C@H]1CCCO1,AC50,Cytochrome P450 3A4,31.6 µM (inconclusive)
CCn1c2ccccc2c2cc(NC(=O)CNC)ccc21,IC50,[2],100 µM (active)
COc1ccccc1-c1cc(NCc2cnc(C)cn2)ncn1,AC50,Cytochrome P450 2D6,20 µM (inconclusive)
NCCSC(c1ccccc1)c1ccccc1,AC50,Cytochrome P450 1A2,1.58 µM (inconclusive)
same,AC50,Cytochrome P450 3A4,3.16 µM (inconclusive)
CCc1c2c(nc3cccc(OC)c13)OC(CC)C2 (configuration not stated),AC50,Cytochrome P450 2D6,39.8 µM (inconclusive)
same,AC50,Cytochrome P450 2C19,20 µM (inconclusive)
O=C(Cn1ccc([N+](=O)[O-])n1)NCc1cccs1,AC50,Cytochrome P450 1A2,15.8 µM (inconclusive)
same,AC50,Cytochrome P450 2C19,14.1 µM (inconclusive)
same,AC50,Cytochrome P450 3A4,39.8 µM (inconclusive)
Cc1ccnc(NC(=O)c2cccc(S(=O)(=O)N3CCN(c4ccc(F)cc4)CC3)c2)c1,CC50,[3],13.4 µM (active)
O=C(c1ccccc1Cc1ccccc1)N1CCN(S(=O)(=O)c2ccccc2Br)CC1,CC50,[3],33.7 µM (active)
COC(=O)Nc1nc2cc(-c3nnc(O)c4ccccc34)ccc2[nH]1,AC50,[5],11.2 µM (active)
Cc1cc(OCC(=O)NCCO)cc(C)c1Cl,EC50,[1],> 195 µM (not active)
C=CCNC(=O)c1c(O)c2cccc3c2n(c1=O)CCC3,CC50,[3],> 50 µM (active)
Brc1cccc(OCCN2CCOCC2)c1,IC50,[2],134 µM (active)
Cc1ccc(C)c(N2CCN(C(=O)C3CCCN(c4ncnc5c4nc4n5CCCCC4)C3)CC2)c1 (configuration not stated),CC50,[3],20.6 µM (active)
Cc1ccc(COn2c(-c3ccc(Cl)cc3)nc3ccc([N+](=O)[O-])cc32)cc1,AC50,Cytochrome P450 2C9,8.91 µM (inconclusive)
same,AC50,Cytochrome P450 3A4,3.55 µM (inconclusive)
C=C(Cl)COc1ccc2c(CCCC)cc(=O)oc2c1,CC50,[3],38.2 µM (active)
COCCn1c(=O)c(-c2ccc(OC)cc2)nc2cnc(Oc3cccc(Cl)c3)nc21,AC50,Cytochrome P450 1A2,6.31 µM (inconclusive)
same,AC50,Cytochrome P450 3A4,2 µM (inconclusive)
S=C(c1ccc(-c2ccc(Cl)c(Cl)c2)o1)N1CCOCC1,CC50,[3],29.4 µM (active)
COc1cccc(-c2nc(CS(=O)(=O)CC(=O)NCCCN3CC(C)CC(C)C3)c(C)o2)c1 (configuration not stated),AC50,Paired box protein Pax-8,19.1 µM (active)
COc1cc(OC)cc(-c2sc3ccc(OC)cc3c2-c2ccc3cc[nH]c3c2)c1,AC50,[5],1.87 µM (active)
Oc1nc2ccccc2n1C1CCN(C(c2cccc3ccccc23)c2nnnn2-c2ccc3c(c2)OCCO3)CC1 (configuration not stated),AC50,Paired box protein Pax-8,3.78 µM (active)
C=CC(C)(C)c1[nH]c2ccccc2c1C1=C(O)C(O)=C(c2c[nH]c3c(CC=C(C)C)cccc23)C(=O)C1=O,AC50,Cytochrome P450 3A4,25.1 µM (inconclusive)
COc1cc(/C=N/NC(=O)C2(O)c3ccccc3-c3ccccc32)ccc1O,IC50,[2],47.6 µM (active)
COc1ccc(N/N=C(/C(C)=O)N2CCCc3ccccc32)cc1,AC50,[5],1.58 µM (active)
Cc1ccc(N/N=C/c2cccnc2)cc1,AC50,[5],4.39 µM (active)
O=C(CSc1nc2ccccc2s1)N/N=C/c1ccccc1C(=O)O,EC50,[1],5.59 µM (active)
O=C(CNC(=O)c1cccs1)N/N=C/c1ccc(O)cc1O,IC50,[2],63.7 µM (active)
O=C(/C(=N/Nc1cccc(C(F)(F)F)c1)C(=O)C(F)(F)F)c1cccs1,AC50,[5],1.76 µM (active)
Cc1ccccc1C(=O)Nc1nnc(CC(=O)N/N=C/c2ccco2)s1,EC50,[1],> 195 µM (not active)
COc1ccc(OC)c(-c2nnc3n2N=C(c2ccc(OC(F)F)c(OCC4CC4)c2)CS3)c1,AC50,[5],7.23 µM (active)
